According to ChEMBL document CHEMBL3885881, “DrugMatrix”:

Species on record: Rattus norvegicus
Test: DrugMatrix - Regimen: Daily Repeat
Assay type: toxicity, organism-based, Sprague-Dawley
Set-up: regimen Daily Repeat, gender Male, age 6-8 weeks
Conditions: in vivo, iv, vehicle 100 % SALINE; for ABSOLUTE BASOPHIL / ABSOLUTE EOSINOPHIL / ABSOLUTE LYMPHOCYTE / ABSOLUTE MONOCYTE / ABSOLUTE SEGMENTED NEUTROPHIL / BASOPHIL / EOSINOPHIL / ERYTHROCYTE COUNT / HEMATOCRIT / HEMOGLOBIN / LEUKOCYTE COUNT / LYMPHOCYTE / MEAN CORPUSCULAR HEMOGLOBIN / MEAN CORPUSCULAR HEMOGLOBIN CONCENTRATION / MEAN CORPUSCULAR VOLUME / MONOCYTE / NEUTROPHIL / NUCLEATED RED BLOOD CELLS / PLATELET COUNT: tissue Blood; for ALANINE AMINOTRANSFERASE / ALBUMIN / ALKALINE PHOSPHATASE / ASPARTATE AMINOTRANSFERASE / BLOOD UREA NITROGEN / CARBON DIOXIDE / CHLORIDE / CHOLESTEROL / CREATINE PHOSPHOKINASE / CREATININE / GLUCOSE / LACTATE DEHYDROGENASE / LIPASE / PHOSPHORUS / POTASSIUM / SODIUM / TOTAL BILIRUBIN / TOTAL PROTEIN / URIC ACID: tissue Plasma
[1] = 0 mg/kg, 72 h, dose level Control, time 3 day
[2] = 0 mg/kg, 120 h, dose level Control, time 5 day
[3] = […], 72 h, dose 0.0033 mg/Kg, dose level Low, time 3 day
[4] = […], 72 h, dose 0.033 mg/Kg, dose level High, time 3 day

COc1cc2c3cc1Oc1cc(ccc1O)C[C@@H]1c4c(cc(OC)c(O)c4Oc4ccc(cc4)C[C@@H]3N(C)CC2)CC[N+]1(C)C.[Cl-]
ABSOLUTE BASOPHIL [1]: 0 CELLS/uL
ABSOLUTE EOSINOPHIL [1]: 0 CELLS/uL
ABSOLUTE LYMPHOCYTE [1]: 11636.83 CELLS/uL
ABSOLUTE MONOCYTE [1]: 159 CELLS/uL
ABSOLUTE SEGMENTED NEUTROPHIL [1]: 1170.83 CELLS/uL
BASOPHIL [1]: 0%
EOSINOPHIL [1]: 0%
ERYTHROCYTE COUNT [1]: 5.46 x10E6/uL
HEMATOCRIT [1]: 34.05%
HEMOGLOBIN [1]: 13.58 G/DL
LEUKOCYTE COUNT [1]: 12.97 x10E3/uL
LYMPHOCYTE [1]: 89.67%
MEAN CORPUSCULAR HEMOGLOBIN [1]: 24.87 pg
MEAN CORPUSCULAR HEMOGLOBIN CONCENTRATION [1]: 39.9 G/DL
MEAN CORPUSCULAR VOLUME [1]: 62.3 fL
MONOCYTE [1]: 1.33%
NEUTROPHIL [1]: 9%
NUCLEATED RED BLOOD CELLS [1]: 0.17 /100WBC
PLATELET COUNT [1]: 824 x10E3/uL
ALANINE AMINOTRANSFERASE [1]: 64.83 u/L
ALBUMIN [1]: 4.08 G/DL
ALKALINE PHOSPHATASE [1]: 421 u/L
ASPARTATE AMINOTRANSFERASE [1]: 116.83 u/L
BLOOD UREA NITROGEN [1]: 16.83 mg/dL
CARBON DIOXIDE [1]: 28 mmol/L
CHLORIDE [1]: 101.33 MEQ/L
CHOLESTEROL [1]: 74.17 mg/dL
CREATINE PHOSPHOKINASE [1]: 748.5 u/L
CREATININE [1]: 0.22 mg/dL
GLUCOSE [1]: 152.83 mg/dL
LACTATE DEHYDROGENASE [1]: 578.5 u/L
LIPASE [1]: 9.83 u/L
PHOSPHORUS [1]: 11.63 mg/dL
POTASSIUM [1]: 5.93 MEQ/L
SODIUM [1]: 142.1 MEQ/L
TOTAL BILIRUBIN [1]: 0.17 mg/dL
TOTAL PROTEIN [1]: 5.77 G/DL
URIC ACID [1]: 1.43 mg/dL
ABSOLUTE BASOPHIL [2]: 0 CELLS/uL
ABSOLUTE EOSINOPHIL [2]: 159.17 CELLS/uL
ABSOLUTE LYMPHOCYTE [2]: 12267.5 CELLS/uL
ABSOLUTE MONOCYTE [2]: 30 CELLS/uL
ABSOLUTE SEGMENTED NEUTROPHIL [2]: 1160 CELLS/uL
BASOPHIL [2]: 0%
EOSINOPHIL [2]: 1.17%
ERYTHROCYTE COUNT [2]: 5.52 x10E6/uL
HEMATOCRIT [2]: 34.3%
HEMOGLOBIN [2]: 13.73 G/DL
LEUKOCYTE COUNT [2]: 13.62 x10E3/uL
LYMPHOCYTE [2]: 90.5%
MEAN CORPUSCULAR HEMOGLOBIN [2]: 24.92 pg
MEAN CORPUSCULAR HEMOGLOBIN CONCENTRATION [2]: 40.07 G/DL
MEAN CORPUSCULAR VOLUME [2]: 62.17 fL
MONOCYTE [2]: 0.17%
NEUTROPHIL [2]: 8.17%
NUCLEATED RED BLOOD CELLS [2]: 0.17 /100WBC
PLATELET COUNT [2]: 1261.83 x10E3/uL
ALANINE AMINOTRANSFERASE [2]: 58.67 u/L
ALBUMIN [2]: 4.15 G/DL
ALKALINE PHOSPHATASE [2]: 364.67 u/L
ASPARTATE AMINOTRANSFERASE [2]: 105.33 u/L
BLOOD UREA NITROGEN [2]: 17.67 mg/dL
CARBON DIOXIDE [2]: 26.5 mmol/L
CHLORIDE [2]: 101.67 MEQ/L
CHOLESTEROL [2]: 63 mg/dL
CREATINE PHOSPHOKINASE [2]: 480.67 u/L
CREATININE [2]: 0.17 mg/dL
GLUCOSE [2]: 144.67 mg/dL
LACTATE DEHYDROGENASE [2]: 540.33 u/L
LIPASE [2]: 10.33 u/L
PHOSPHORUS [2]: 11.52 mg/dL
POTASSIUM [2]: 6.12 MEQ/L
SODIUM [2]: 142.45 MEQ/L
TOTAL BILIRUBIN [2]: 0.18 mg/dL
TOTAL PROTEIN [2]: 5.73 G/DL
URIC ACID [2]: 1.48 mg/dL
ABSOLUTE BASOPHIL [3]: 0 CELLS/uL
ABSOLUTE EOSINOPHIL [3]: 38.67 CELLS/uL
ABSOLUTE LYMPHOCYTE [3]: 9113.67 CELLS/uL
ABSOLUTE MONOCYTE [3]: 101 CELLS/uL
ABSOLUTE SEGMENTED NEUTROPHIL [3]: 846.67 CELLS/uL
BASOPHIL [3]: 0%
EOSINOPHIL [3]: 0.33%
ERYTHROCYTE COUNT [3]: 5.25 x10E6/uL
HEMATOCRIT [3]: 31.97%
HEMOGLOBIN [3]: 12.93 G/DL
LEUKOCYTE COUNT [3]: 10.1 x10E3/uL
LYMPHOCYTE [3]: 90.33%
MEAN CORPUSCULAR HEMOGLOBIN [3]: 24.73 pg
MEAN CORPUSCULAR HEMOGLOBIN CONCENTRATION [3]: 40.53 G/DL
MEAN CORPUSCULAR VOLUME [3]: 60.97 fL
MONOCYTE [3]: 1%
NEUTROPHIL [3]: 8.33%
NUCLEATED RED BLOOD CELLS [3]: 0 /100WBC
PLATELET COUNT [3]: 798.67 x10E3/uL
ABSOLUTE BASOPHIL [4]: 0 CELLS/uL
ABSOLUTE EOSINOPHIL [4]: 61.33 CELLS/uL
ABSOLUTE LYMPHOCYTE [4]: 18023 CELLS/uL
ABSOLUTE MONOCYTE [4]: 62 CELLS/uL
ABSOLUTE SEGMENTED NEUTROPHIL [4]: 687 CELLS/uL
BASOPHIL [4]: 0%
EOSINOPHIL [4]: 0.33%
ERYTHROCYTE COUNT [4]: 5 x10E6/uL
HEMATOCRIT [4]: 31.67%
HEMOGLOBIN [4]: 13 G/DL
LEUKOCYTE COUNT [4]: 18.83 x10E3/uL
LYMPHOCYTE [4]: 95.67%
MEAN CORPUSCULAR HEMOGLOBIN [4]: 26 pg
MEAN CORPUSCULAR HEMOGLOBIN CONCENTRATION [4]: 41.03 G/DL
MEAN CORPUSCULAR VOLUME [4]: 63.33 fL
MONOCYTE [4]: 0.33%
NEUTROPHIL [4]: 3.67%
NUCLEATED RED BLOOD CELLS [4]: 0 /100WBC
PLATELET COUNT [4]: 1148.67 x10E3/uL
